From patent publication US11020360B2, “Methods, compounds, compositions and vehicles for delivering 3-amino-1-propanesulfonic acid” (Bellus Health, Inc., priority 2006, dated 2021)

Assay: PK brain and plasma levels of oral Compound A2 and 3-APS in mice
Format: in vivo
Conditions: oral 0.18 mmol/kg
Method: Compounds A2 and 3-aminopropanesulfonic acid were tested for pharmacokinetic parameters in mice. Parmacokinetic parameters (Cmax, Tmax, T½, AUC) are evaluated for 3APS after administration of a molar equivalent of each compound. Blood samples (approximately 1 ml) and brain samples are collected from each of 3 animals at time points 5, 15, 30 minutes, 1, 2, 4, 6, 12, and 24 hours. […] A 2-fold increase in plasma concentration (Cmax) of 3-APS was observed when orally administering Compound A2 compared to 3-APS.

Brain AUC (3-APS analysed): BLLQ
Brain Cmax (3-APS analysed): BLLQ
Brain concentration of 3-APS: could not be quantified
Structure (SMILES): NCCCS(=O)(=O)O [Compound 3APS, 3-amino-1-propanesulfonic acid]
